Experimental data as given in publication PMC8559303 (European Journal of Medicinal Chemistry, 2021).

Test system: SARS-CoV-2
Type: cell-based
Settings: 200 μM, Vero E6, CCK8

SMILES	protection on cells from death caused by viral infection [%]
CCN1Cc2cc(OC)c(OC)cc2-c2cccc(N)c21 [Compound 12, 5-Ethyl-8,9-dimethoxy-5,6-dihydrophenanthridin-4-amine]	~100
CCN1Cc2cc(OC)c(OC)cc2-c2cccc(NC(=O)C(F)(F)F)c21 [Compound 16, N-(5-Ethyl-8,9-dimethoxy-5,6-dihydrophenanthridin-4-yl)-2,2,2-trifluoroacetamide]	~100
